Results from patent US20080287375A1, “Selective Glycosidase Inhibitors, Methods of Making Inhibitors, and Uses Thereof” (SIMON FRASER UNIVERSITY, priority 2005, published 2008).
“Also recorded” adds a separate entry of the source.

Legend:
[1] = system: O-GlcNAc-modified proteins in COS-7 cells; assay: Western blot of O-GlcNAc-modified proteins in COS-7 cells cultured with inhibitors; assay type: cell-based; conditions: 50 μM inhibitor
Description: COS-7 cells were cultured in DMEM medium (Invitrogen) supplemented with 5-10% FBS (Invitrogen). Aliquots of inhibitors (50 μL of a stock in 95% ethanol) were delivered onto tissue culture plates and the ethanol was evaporated. The cells were incubated at 37° C. for 40 hours at which time they reached approximately 80% confluence. […] COS-7 cells were cultured to 25% confluence in 5% FBS and an aliquot (100 μL) of inhibitor dissolved in media and filter sterilized was added to each plate to yield a final concentration of 50 μM of inhibitor. COS-7 cells (2×10 cm plates) were harvested at the appropriate times by scraping and were pooled by centrifugation (200×g, 10 min). Cells were washed once with PBS, pH 7.0 (10 mL) and pelleted (200×g, 10 min). The cells could be frozen at −80° C. at this point. Control cultures without inhibitors were treated in the same manner.
A culture of control cells was treated in the same manner as follows but the cultures contained no inhibitor. Cells were harvested as described above. Frozen cells were thawed at 4° C., and cold lysis buffer (1 mL of 50 mM Tris, pH 8.0 containing 150 mM NaCl, 1 mM EDTA, 1 mM PMSF, 1% NP-40, 0.5% sodium deoxycholate, and 1 mM of inhibitor 90) was added. After 10 minutes at 4° C. the solution was centrifuged at 14,000 rpm in an Eppendorf 5415C microcentrifuge and the supernatant was collected. SDS/PAGE loading buffer was added to an aliquot (15 μL) of each sample, and after heating at 96° C. aliquots were loaded onto 10% or 12% Tris-HCl polyacrylamide gels. After electrophoresis, the samples were electroblotted to nitrocellulose membrane (0.45 μm, Bio-Rad). Transfer was verified by visual inspection of the transfer of prestained markers (Dual Colour Precision Plus Protein Standard—Biorad). The membrane was blocked by using 5% BSA (fraction V, Sigma) in PBS (blocking buffer A for samples probed with mouse anti-O-GlcNAc monoclonal IgM antibody (MAb CTD 110.6—Covance)) or 5% low-fat dry powdered milk (blocking buffer B for samples probed with anti-β-actin), pH 7.4, containing 0.1% Tween 20 for 1 h at room temperature or overnight at 4° C. The blocking solution was decanted, and a solution of blocking buffer A containing MAb CTD 110.6 (1:2500 of the stock) or blocking buffer B containing mouse monoclonal anti-β-actin IgG (Clone AC-40—Sigma) was added (1:1000 dilution) as appropriate. The membrane was incubated at room temperature for 1 h or overnight at 4° C. after which the blocking buffer was decanted and the membrane was rinsed with PBS, pH 7.4, containing 0.1% Tween 20 (wash buffer). Membranes were then rinsed for 2×5 min and 3×15 min with wash buffer. For immunological detection of O-GlcNAc, the membrane was incubated in blocking buffer A for 1 hour at RT and, after washing, the membrane was incubated with a secondary goat anti-mouse-IgM-HRP-conjugate (1:2500, Santa Cruz Biotech) for one hour at RT or 4° C. overnight in blocking solution. For detection of β-actin levels, the membrane was incubated with a secondary goat anti-mouse-IgG-HRP conjugate (1:100000, Sigma) for one hour at RT or 4° C. overnight in blocking solution B. Membranes were washed and detection of membrane bound goat anti-mouse-IgG-HRP conjugate was accomplished by chemiluminescent detection using the SuperSignal West Pico Chemiluminescent Detection Kit (Pierce) and film (Kodak Biomax MR).

[2] = system: O-GlcNAc modified proteins in rat tissues; assay: Clearance rate: time course of tissue O-GlcNAc levels in rats after tail vein injection; assay type: in vivo; conditions: 50 mg kg^−1 tail vein
Description: To obtain information for how rapid the inhibitor is cleared from tissues, five 10-week old Sprague-Dawley rats were given a tail vein injection of the inhibitor (50 mg kg^−1). The animals were sacrificed sequentially 3, 7, 24, 27, and 32 hours following the injection. Two additional rats were used as controls. One rat was sacrificed immediately before the others received their injections in order to obtain information about the normal levels of O-GlcNAc modified proteins. Also, one rat was injected with sterilized PBS (pH 7.4) along with the other rats and sacrificed at the end of the experiment (32 hours). Tissue collection, homogenization, and western blot analyses were done in the same matter as described above.

In the case of CCCC1=N[C@@H]2[C@@H](O)[C@H](O)[C@@H](CO)O[C@@H]2S1 [Compound 9c, 1,2-dideoxy-2′-propyl-α-D-glucopyranoso-[2,1-d]-2′-thiazoline], the “cellular levels of O-GlcNAc-modified proteins compared to control” value ([1]; 40 hours, Western blot) is reported as “Marked increases; also recorded: increase in cellular levels of O-GlcNAc-modified proteins”, the “levels of O-GlcNAc-modified proteins after one hour of exposure” value ([1]; one hour) is reported as “increases in levels of O-GlcNAc-modified proteins were observed” and the “levels of O-GlcNAc-modified proteins as a function of time” value ([1]; over 40 hours) is reported as “clear time dependent increase”. The “cellular levels of O-GlcNAc modified proteins in brain, 24 hours after injection” value [2] was “dropped”, the “cellular levels of O-GlcNAc modified proteins in brain, seven hours after injection” value [2] was “remained high” and the “cellular levels of O-GlcNAc modified proteins in brain, three hours after injection” value [2] was “marked increases”. The “time after which O-GlcNAc levels return to normal levels” value ([2]; brain) was “about 32 hours”, the “time to elevate O-GlcNAc levels in tissues” value ([2]; brain and muscle) was < 3 h and the “time within which the inhibitor is cleared from the tissues and O-GlcNAc levels return to normal” value ([2]; brain and muscle) was 24 to 32 h.
